The compounds below were run against Recombinant human HSD17B13 enzyme (Homo sapiens (Human), UniProt Q7Z5P4) (assay: HSD17b13 NAD(P)H-Glo Biochemical Assay). Conditions: 50 uM estradiol, 1 mM NAD+; read-out: HSD17β13 IC50.
Summary of the method: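 Recombinant human HSD17B13 was pre-incubated with inhibitor for 20 min at RT in 20 mM Tris pH 7.4 with 0.002% Tween-20 and 0.02% BSA. Reaction then ran with 50 uM estradiol and 1 mM NAD+ (final) for 3 h at 37° C. NADH formed was detected by NAD(P)H-Glo luminescence after 1 h at RT.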

Sequence of Recombinant human HSD17B13 enzyme (Q7Z5P4 20-300): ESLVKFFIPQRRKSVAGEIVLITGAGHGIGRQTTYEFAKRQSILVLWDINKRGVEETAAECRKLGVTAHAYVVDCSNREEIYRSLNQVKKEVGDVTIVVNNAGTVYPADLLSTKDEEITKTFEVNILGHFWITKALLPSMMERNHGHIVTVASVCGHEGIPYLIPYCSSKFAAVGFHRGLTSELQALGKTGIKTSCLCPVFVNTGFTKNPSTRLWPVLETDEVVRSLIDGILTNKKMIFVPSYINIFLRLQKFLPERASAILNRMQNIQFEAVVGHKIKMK

First: Nc1ccc(-c2ccc3c(cnn3-c3ccc(F)c(O)c3)c2)c(Cl)c1 [Compound 9, 5-(5-(4-Amino-2-chlorophenyl)-1H-indazol-1-yl)-2-fluorophenol]
Second: O=C(O)c1ccccc1-c1ccc2c(cnn2-c2ccc(F)c(O)c2)c1 [Compound 5.23, 2-(1-(4-Fluoro-3-hydroxyphenyl)-1H-indazol-5-yl)benzoic acid]
The IC50 of the first is lower: 100 to 1000 nM for the first, 1000 to 30000 nM for the second. The first is the more potent here.

`CS(=O)(=O)N1CCN(c2cc3cnn(-c4ccc(F)c(O)c4)c3cn2)CC1` [Compound 19.09, 2-Fluoro-5-(5-(4-(methylsulfonyl)piperazin-1-yl)-1H-pyrazolo[3,4-c]pyridine-1-yl)phenol] and `CS(=O)(=O)N1CCN(c2cc3cnn(-c4cc(O)cc(OC(F)(F)F)c4)c3cn2)CC1` [Compound 19.12, 3-(5-(4-(Methylsulfonyl)piperazin-1-yl)-1H-pyrazolo[3,4-c]pyridine-1-yl)-5-(trifluoromethoxy)phenol] fall in the same range of IC50: 1000 to 30000 nM for the first, 1000 to 30000 nM for the second.

`CS(=O)(=O)N1CCN(c2cc3cn(-c4cc(O)c(F)cn4)nc3cn2)CC1` [Compound 19.20, 5-Fluoro-2-(5-(4-(methylsulfonyl)piperazin-1-yl)-2H-pyrazolo[3,4-c]pyridine-2-yl)pyridine-4-ol] and `CS(=O)(=O)N1CCN(c2cc3cnn(-c4ccc(C(F)(F)F)c(O)c4F)c3cn2)CC1` [Compound 19.25, 2-Fluoro-3-(5-(4-(methylsulfonyl)piperazin-1-yl)-1H-pyrazolo[3,4-c]pyridine-1-yl)-6-(trifluoromethyl)phenol] fall in the same range of IC50: 1000 to 30000 nM for the first, 1000 to 30000 nM for the second.

`Oc1cc(-n2ncc3cc(-c4ccc(O)c(Cl)c4)ccc32)cc(C(F)(F)F)c1` [Compound 3.04, 2-Chloro-4-(1-(3-hydroxy-5-(trifluoromethyl)phenyl)-1H-indazol-5-yl)phenol] and `Oc1cncc(-n2ncc3cc(-c4ccc(O)c(Cl)c4)ccc32)c1` [Compound 17, 5-(5-(3-Chloro-4-hydroxyphenyl)-1H-indazol-1-yl)pyridin-3-ol] fall in the same range of IC50: 100 to 1000 nM for the first, 100 to 1000 nM for the second.

`CS(=O)(=O)N1CC2(CN(c3ccc4c(cnn4-c4cc(O)c(F)c(F)c4)c3)C2)C1` [Compound 21.27, 2,3-Difluoro-5-(5-(6-(methyl-sulfonyl)-2,6-diazaspiro[3.3]-heptan-2-yl)-1H-indazol-1-yl)phenol] and `CC(C)S(=O)(=O)N1CCN(c2ccc3c(cnn3-c3cc(O)c(F)c(F)c3)c2)CC1` [Compound 21.04, 2,3-Difluoro-5-(5-(4-(isoprop-ylsulfonyl)piperazin-1-yl)-1H-indazol-1-yl)phenol] fall in the same range of IC50: 100 to 1000 nM for the first, 100 to 1000 nM for the second.

First: CS(=O)(=O)N1CCN(c2ccc3c(cnn3-c3nccc(O)c3F)c2)CC1 [Compound 28.06, 3-Fluoro-2-(5-(4-(methyl-sulfonyl)piperazin-1-yl)-1H-indazol-1-yl)pyridin-4-ol]
Second: O=S(=O)(c1ccc2c(cnn2-c2cc(O)c(F)c(F)c2)c1)N1CCOCC1 [Compound 30.01, 2,3-Difluoro-5-(5-(morpholinosulfonyl)-1H-indazol-1-yl)phenol]
The IC50 of the first is higher: 1000 to 30000 nM for the first, 100 to 1000 nM for the second. The second is the more potent here.

`Cc1nn(-c2cc(C(F)(F)F)c(F)c(O)c2F)c2cnc(N(C)C3CCOCC3)nc12` [Compound 19.78, 2,6-Difluoro-3-(3-methyl-5-(methyl(tetrahydro-2H-pyran-4-yl)amino)-1H-pyrazolo[4,3-d]pyrimidin-1-yl)-5-(trifluoromethyl)phenol] and `Cc1nn(-c2cc(C(F)(F)F)c(F)c(O)c2F)c2ccc(N(C)C3CCOCC3)nc12` [Compound 19.49, 2,6-Difluoro-3-(3-methyl-5-(methyl(tetrahydro-2H-pyran-4-yl)amino)-1H-pyrazolo[4,3-b]pyridine-1-yl)-5-(trifluoromethyl)phenol] cannot be ordered by IC50: less than 100 nM for the first, less than 100 nM for the second.

`CC1(C)CC=C(c2ccc3c(cnn3-c3cc(O)c(F)c(C(F)(F)F)c3)c2)CC1` [Compound 18.01, 5-(5-(4,4-Dimethylcyclohex-1-en-1-yl)-1H-indazol-1-yl)-2-fluoro-3-(trifluoromethyl)phenol] and `CC1(C)CC=C(c2ccc3nn(-c4cc(O)c(F)c(C(F)(F)F)c4)cc3c2)CC1` [Compound 18.02, 5-(5-(4,4-Dimethylcyclohex-1-en-1-yl)-2H-indazol-2-yl)-2-fluoro-3-(trifluoromethyl)phenol] fall in the same range of IC50: 100 to 1000 nM for the first, 100 to 1000 nM for the second.

First: CN(c1ccc2c(c1)c(F)nn2-c1cc(C(F)(F)F)c(F)c(O)c1F)C1CCOCC1 [Compound 21.58, 2,6-Difluoro-3-(3-fluoro-5-(methyl(tetrahydro-2H-pyran-4-yl)amino)-1H-indazol-1-yl)-5-(trifluoromethyl)phenol]
Second: Cc1nn(-c2cc(C(F)(F)F)c(F)c(O)c2F)c2cc(Cl)c(N3CCOCC34CC4)nc12 [Compound 19.114, 3-(6-Chloro-3-methyl-5-(7-oxa-4-azaspiro[2.5]octan-4-yl)-1H-pyrazolo[4,3-b]pyridin-1-yl)-2,6-difluoro-5-(trifluoromethyl)phenol]
The IC50 of the first is higher: 100 to 1000 nM for the first, less than 100 nM for the second. The second is the more potent here.

Compound `CS(=O)(=O)c1ccc(-c2ccc3c(cnn3-c3ccc(F)c(O)c3)c2)cc1` [Compound 5.05, 2-Fluoro-5-(5-(4-(methylsulfonyl)phenyl)-1H-indazol-1-yl)phenol] has an IC50 of 100 to 1000 nM.

— patent US20240034736A1, “HSD17B13 INHIBITORS AND USES THEREOF” (FL2022-001, Inc., priority 2020, published 2024)
